In patent publication US20150119251A1, “AGRICULTURAL PLANT-PROTECTING AGENTS CONTAINING DIPEPTIDE DERIVATIVE AS ACTIVE INGREDIENT” (REPUBLIC OF KOREA (RURAL DEVELOPMENT ADMINISTRATION), priority 2012, published 2015):
Square brackets hold non-standard residues; d marks the D form. Peptide text beside a SMILES is read from it. * marks the point of attachment. Trt = c1ccc(C(c2ccccc2)(c2ccccc2)*)cc1; Boc = CC(C)(C)OC(=O)*; Bz = O=C(c1ccccc1)*; OBn = c1ccc(CO*)cc1; OAll = C=CCO*

Columns and labels:
[1] = tested on: pepper phytophthora blight (Phytopthora capsici); test: Suppression of pepper phytophthora blight on leaves; assay type: in vivo; details: for Outbreak of the phytophthora blight on the leaves: drench-treated to the roots; for Lesion outbreak rate: pepper leaves
Procedure: The peppers were raised in the same method as Example 3, and then, the test compounds were dissolved in 20% methanol to make a stock solution, and a stock was diluted to the concentrations of 0.1, 1.0, and 10.0 ppm. The test solutions were sprayed on the leaves or drench-treated on the leaves. After 7 days, the pathogen of plant bacterial rot (Pectobacterium carotovorum SCC1) was cultured in a TSA medium for 27 hours, and then, wetted on an 8 mm diameter paper disc in the concentration of 10^8 cfu/mL. The paper disc was located in the center of the leaves that were cut roundly, and then, after about 7 days, the lesion area was measured. In the case of phytophthora, the potato agar medium cultured with the phytophthora (Phytophthora capsici) was cut in the internal diameter size of 5 mm with a cork borer, and then inoculated to the leaves. After 7 days, the lesion area was observed. In the case of a bacterial rot, when Compounds 6, 89, 93, and 95 were sprayed on the pepper leaves, the bacterial rot was not found in the concentration of 1 or 10 ppm as compared with the non-treated group. […] The Suppression of lesion formation on the leaves when these compounds were drench-treated to the roots can be explained as it was resulted from that systemic disease resistance was induced in the whole plant. These test results are illustrated in the photographs of FIGS. 5 to 9.

[2] = tested on: tobacco bacterial rot (Pectobacterium carotovorum); test: Suppression of tobacco bacterial rot; assay type: in vivo, Pectobacterium carotovorum SCC1
Procedure: A tobacco or cucumber was sown in a plastic pot with a diameter of 10 cm×13 cm, and then, 12 pots were added in a yellow box. After seeding, 100 μL was inoculated to the cotyledons of cucumber or tobacco, in which first leaf was started to come out. The test compounds were dissolved in 20% methanol to make a stock solution, and then, the stock solution was diluted to the concentrations of 1, 10, and 100 ppm.
After 7 days, the pathogen of a plant bacterial rot (Pectobacterium carotovorum SCC1) was cultured in a TSA medium for 27 hours; and then, the cultured pathogen was sprayed in a concentration of 10^8 cfu/mL to the plant leaves, and cultured at 30° C. for 3 days. The plant anthracnose germ (Colletotrichum orbiculare) was cultured in a GBA (Green bean agar) medium to induce spores for about 2 to 3 weeks. The germ was sprayed in a concentration of 10^5 cell/mL and then cultured at 26° C. for 1 day. When fourth or fifth leaf came out, 200 μL of each of the test compounds was inoculated to third leaf. After 7 days, the pathogen of the plant bacterial rot was sprayed to the plant leaves in the concentration of 10^8 cfu/mL, and then cultured at 30° C. for 3 days.
The investigation was performed with naked eyes, and the lesion relative areas were investigated until 0 to 100% according to the shortness degrees of the bacterial rot. The anthracnose was investigated by counting the number of lesions occurred on the leaves.

cucumber leaves = test: Plant growth promotion, width of cucumber leaf; assay type: in vivo; details: non-treated = 100.0 (92.1 mm), unit of the source corrected
Procedure: The active ingredients (Compounds 5 to 8, 14, and 15) were drenched to the leaves of a plant (pepper, potato, tomato, tobacco, cucumber, and Chinese cabbage), and then, after 7 days, the plant lengths were measured. Since then, the plant disease pathogen was inoculated, and then, after 3 to 5 days, the sizes of the plant leaves were measured and compared with the control group to obtain the relative growth degrees.

[3] = drench-treated, 1.0 or 10.0 ppm

SMILES	Lesion outbreak rate ([1]; 0.1 ppm) [area %]	Lesion outbreak rate ([1]; 1.0 ppm) [area %]	also measured
COC(=O)CNC(=O)[C@@H](N)CC(C)C [Compound 4] (H-Leu-Gly-OMe)	–	–	Outbreak of the phytophthora blight on the leaves [1]: significantly decreased; Lesion outbreak rate ([2]; Table 3, tobacco, 1 ppm): 47%; Lesion outbreak rate ([2]; Table 3, tobacco, 10 ppm): 80%; Lesion outbreak rate ([2]; Table 3, tobacco, 100 ppm): 90%
COC(=O)CNC(=O)[C@@H](NC(=O)OC(C)(C)C)C(C)C [Compound 5] (Boc-Val-Gly-OMe)	–	–	Width of cucumber leaf (relative value to the non-treated group) (cucumber leaves; 1.0 ppm): 100%; Width of cucumber leaf (relative value to the non-treated group) (cucumber leaves; 10 ppm): 111%; Width of cucumber leaf (relative value to the non-treated group) (cucumber leaves; 100 ppm): 121%; Lesion outbreak rate ([2]; Table 3, tobacco, 1 ppm): 73%; Lesion outbreak rate ([2]; Table 3, tobacco, 10 ppm): 40%; Lesion outbreak rate ([2]; Table 3, tobacco, 100 ppm): 7.7%
COC(=O)C(CC(C)C)NC(=O)C(NC(=O)OC(C)(C)C)C(C)O (stereo not drawn) [Compound 7] (Boc-Thr-Leu-OMe; configuration not given here)	–	–	Width of cucumber leaf (relative value to the non-treated group) (cucumber leaves; 1.0 ppm): 110%; Width of cucumber leaf (relative value to the non-treated group) (cucumber leaves; 10 ppm): 121%; Width of cucumber leaf (relative value to the non-treated group) (cucumber leaves; 100 ppm): 121%; Lesion outbreak rate ([2]; Table 3, tobacco, 1 ppm): 40%; Lesion outbreak rate ([2]; Table 3, tobacco, 10 ppm): 27%; Lesion outbreak rate ([2]; Table 3, tobacco, 100 ppm): 20%
COC(=O)[C@H]1CCCN1C(=O)[C@@H](CCC(N)=O)NC(=O)OC(C)(C)C [Compound 72] (Boc-[dQ]-[dP]-OMe)	–	–	Lesion outbreak rate ([2]; Table 6, tobacco, 1 ppm): 55%; Lesion outbreak rate ([2]; Table 6, tobacco, 10 ppm): 72%; Lesion outbreak rate ([2]; Table 6, tobacco, 100 ppm): 45%
COC(=O)[C@H]1CCCN1C(=O)[C@@H](Cc1c[nH]c2ccccc12)NC(=O)OC(C)(C)C [Compound 73] (Boc-[dW]-[dP]-OMe)	–	–	Lesion outbreak rate ([2]; Table 6, tobacco, 1 ppm): 35%; Lesion outbreak rate ([2]; Table 6, tobacco, 10 ppm): 60%; Lesion outbreak rate ([2]; Table 6, tobacco, 100 ppm): 46%
COC(=O)[C@H]1CCCN1C(=O)[C@@H](CC(C)C)NC(=O)OC(C)(C)C [Compound 75] (Boc-[dL]-[dP]-OMe)	–	–	Lesion outbreak rate ([2]; Table 6, tobacco, 1 ppm): 25%; Lesion outbreak rate ([2]; Table 6, tobacco, 10 ppm): 80%; Lesion outbreak rate ([2]; Table 6, tobacco, 100 ppm): 100%
COC(=O)[C@H]1CCCN1C(=O)[C@H](NC(=O)OC(C)(C)C)C(C)C [Compound 76] (Boc-[dV]-[dP]-OMe)	–	–	Lesion outbreak rate ([2]; Table 6, tobacco, 1 ppm): 46%; Lesion outbreak rate ([2]; Table 6, tobacco, 10 ppm): 41%; Lesion outbreak rate ([2]; Table 6, tobacco, 100 ppm): 37%
COC(=O)[C@@H]1CCCN1C(=O)[C@@H](CSC(c1ccccc1)(c1ccccc1)c1ccccc1)NC(=O)OC(C)(C)C [Compound 77] (Boc-[dC](Trt)-Pro-OMe)	46	36	–
COC(=O)[C@@H]1CCCN1C(=O)[C@H](N)CS [Compound 78] (H-[dC]-Pro-OMe)	58	47	–
COC(=O)CNC(=O)[C@H](CO)NC(=O)OC(C)(C)C [Compound 81] (Boc-Ser-Gly-OMe)	68	58	–
CCOC(=O)[C@H](C)NC(=O)CNC(=O)OC(C)(C)C [Compound 82] (Boc-Gly-Ala-OEt)	74	60	–
CCOC(=O)[C@H](Cc1ccccc1)NC(=O)[C@H](CC(C)C)NC(=O)OC(C)(C)C [Compound 83] (Boc-Leu-Phe-OEt)	80	57	–
COC(=O)[C@@H]1CCCN1C(=O)[C@H](Cc1c[nH]c2ccccc12)NC(=O)OC(C)(C)C [Compound 84] (Boc-Trp-Pro-OMe)	35	33	–
COC(=O)[C@@H]1CCCN1C(=O)[C@H](C)NC(=O)OC(C)(C)C [Compound 86] (Boc-Ala-Pro-OMe)	58	83	–
COC(=O)[C@@H](NC(=O)CNC(=O)OC(C)(C)C)C(C)C [Compound 87] (Boc-Gly-Val-OMe)	62	36	–
COC(=O)[C@@H](NC(=O)CN)C(C)C [Compound 88] (H-Gly-Val-OMe)	35	33	–

SMILES	Lesion outbreak rate ([1]; 0.1 ppm) [area %]	Lesion outbreak rate ([1]; 1.0 ppm) [area %]	also measured
C=CCOC(=O)C[C@H](NC(=O)OC(C)(C)C)C(=O)N[C@@H](Cc1ccccc1)C(=O)OC [Compound 92] (Boc-Asp(OAll)-Phe-OMe)	25	38	–
COC(=O)[C@H](Cc1ccccc1)NC(=O)[C@H](CC(=O)OCc1ccccc1)NC(=O)OC(C)(C)C [Compound 94] (Boc-Asp(OBn)-Phe-OMe)	12	6.8	Outbreak of the phytophthora blight on the leaves [1]: significantly decreased; Lesion formation, pepper phytophthora test [1, 3]: no the lesion formations
COC(=O)C[C@H](NC(C)=O)C(=O)N[C@@H](Cc1ccccc1)C(=O)OC [Compound 96] (Ac-Asp(OMe)-Phe-OMe)	32	23	–
COC(=O)C[C@H](NC(=O)c1ccccc1)C(=O)N[C@@H](Cc1ccccc1)C(=O)OC [Compound 97] (Bz-Asp(OMe)-Phe-OMe)	22	25	–
C=CCOC(=O)C[C@H](NC(C)=O)C(=O)N[C@@H](Cc1ccccc1)C(=O)OC [Compound 98] (Ac-Asp(OAll)-Phe-OMe)	16	12	–
C=CCOC(=O)C[C@H](NC(=O)c1ccccc1)C(=O)N[C@@H](Cc1ccccc1)C(=O)OC [Compound 99] (Bz-Asp(OAll)-Phe-OMe)	36	18	–
COC(=O)[C@H](Cc1ccccc1)NC(=O)[C@H](CC(=O)OCc1ccccc1)NC(C)=O [Compound 100] (Ac-Asp(OBn)-Phe-OMe)	19	21	–
COC(=O)[C@H](Cc1ccccc1)NC(=O)[C@H](CC(=O)OCc1ccccc1)NC(=O)c1ccccc1 [Compound 101] (Bz-Asp(OBn)-Phe-OMe)	11	27	–
COC(=O)[C@H](Cc1ccccc1)NC(=O)[C@H](CC(=O)O)NC(C)=O [Compound 102] (Ac-Asp-Phe-OMe)	20	15	–
COC(=O)CNC(=O)[C@@H](NC(C)=O)C(C)C [Compound 103] (Ac-Val-Gly-OMe)	15	28	–
COC(=O)CNC(=O)[C@H](CC(C)C)NC(C)=O [Compound 104] (Ac-Leu-Gly-OMe)	22	18	–
COC(=O)CNC(=O)[C@@H]1CCCN1C(C)=O [Compound 105] (Ac-Pro-Gly-OMe)	18	21	–
COC(=O)[C@@H]1CCCN1C(=O)CNC(=O)OC(C)(C)C [Compound 106] (Boc-Gly-Pro-OMe)	25	26	–
COC(=O)[C@@H]1CCCN1C(=O)[C@@H](N)Cc1c[nH]c2ccccc12 [Compound 107] (H-Trp-Pro-OMe)	9.3	3.5	Effect on suppressing the outbreak of pepper phytophthora blight or bacterial rot as compared with the non-treated control group ([1]; directly sprayed to the leaves, phytophthora blight or bacterial rot): excellent; Outbreak of the phytophthora blight on the leaves [1]: significantly decreased; Lesion formation, pepper phytophthora test [1, 3]: no the lesion formations; Lesion formation, pepper phytophthora test ([1]; sprayed on the leaves, 1 or 0.1 ppm): no the lesion formations
COC(=O)[C@H](C)NC(=O)[C@@H](N)C(C)C [Compound 108] (H-Val-Ala-OMe)	14	18	–
CCC(C)C(N)C(=O)NC(C)C(=O)OC (stereo not drawn) [Compound 109]	25	9.4	–
